According to publication PMC3546862, “Assessing the utility of an anti-malarial pharmacokinetic-pharmacodynamic model for aiding drug clinical development” (Malaria Journal, 2012):
Values after ≈ are worked out from the molar mass of the structure shown. Like-named read-outs stand apart in the source and are kept apart here. Marks after values point to notes of the source that are not given here.

Columns and labels:
[1] = system: P. falciparum strain NF54; test: [3H]-hypoxanthine incorporation assay, asynchronous intraerythrocytic forms; assay type: cell-based; conditions: for IC50: Plasmodium falciparum
Protocol: (§1) The fresh P. falciparum parasite isolates were obtained from blood samples of 487 patients attending outpatient clinics in Papua, Indonesia between 2004 and 2010 [26]. The in vitro drug susceptibility was determined using the World Health Organization guidelines for schizont maturation tests. The in vitro data for artemether were measured at the Swiss Tropical and Public Health Institute (Switzerland; Basel) against asynchronous intraerythrocytic forms of the P. falciparum strain NF54 (obtained from MR4) using the [3H]-hypoxanthine incorporation assay.

0.5% Albumax in RPMI = 0.5% Albumax in RPMI (Bos taurus, UniProt P02769); test: Binding to in vitro testing media by ultracentrifugation; assay type: in vitro ADME; conditions: ultracentrifugation 4.2 hours at 37°C
Chain of 0.5% Albumax in RPMI (P02769 25-607): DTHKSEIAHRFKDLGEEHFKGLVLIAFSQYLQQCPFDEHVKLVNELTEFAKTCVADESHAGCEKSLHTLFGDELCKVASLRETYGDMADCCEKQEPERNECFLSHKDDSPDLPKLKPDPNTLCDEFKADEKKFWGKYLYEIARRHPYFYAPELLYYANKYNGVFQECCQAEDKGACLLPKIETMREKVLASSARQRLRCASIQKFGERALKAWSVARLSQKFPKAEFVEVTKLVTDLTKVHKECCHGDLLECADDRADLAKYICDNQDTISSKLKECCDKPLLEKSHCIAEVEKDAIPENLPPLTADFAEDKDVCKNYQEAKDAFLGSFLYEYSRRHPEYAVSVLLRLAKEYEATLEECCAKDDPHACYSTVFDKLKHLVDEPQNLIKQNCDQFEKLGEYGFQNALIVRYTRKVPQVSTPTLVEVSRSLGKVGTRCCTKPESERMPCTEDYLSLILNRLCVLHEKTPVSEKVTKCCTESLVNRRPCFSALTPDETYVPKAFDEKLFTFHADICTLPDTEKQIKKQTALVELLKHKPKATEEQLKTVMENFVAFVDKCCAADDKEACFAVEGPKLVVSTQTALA
Protocol: (§2) Estimates of drug binding to the in vitro testing media (i.e. 0.5% Albumax in RPMI) and human plasma were determined using ultracentrifugation. Briefly, blank Albumax media and plasma were each spiked with compound and divided into six aliquots; three aliquots were subjected to ultracentrifugation (Beckman Optima XL-100K Ultracentrifuge, Rotor type 42.2 Ti; 223,000 x g) for 4.2 hours at 37°C to pellet the proteins whereas the remaining three aliquots served as controls and were incubated at 37°C for the same time period but without centrifugation. Controls were also stored at −20°C to confirm sample stability over the centrifugation period. Aliquots of the supernatants from the ultracentrifuged samples were first diluted 1:1 in acetonitrile, assayed by LC-MS and the responses compared to a calibration curve prepared in 50% aqueous acetonitrile to determine the unbound (i.e. free) concentration. Control concentrations in each matrix were determined using LC-MS by first precipitating the proteins with acetonitrile (3:1 acetonitrile: matrix) and then comparing the responses to a calibration curve from a blank matrix prepared using the same protein precipitation procedure. The free fraction in each matrix was then determined from the ratio of the average unbound (e.g. free) concentration to the average total concentration in each matrix.

human plasma protein = test: Human plasma protein binding by ultracentrifugation; assay type: in vitro ADME; conditions: ultracentrifugation 4.2 hours at 37°C
Protocol: as §2

[2] = Whole blood to plasma partitioning ratio (B/P); assay type: in vitro ADME; conditions: human, whole blood and plasma; 37°C, 2 min incubation
Protocol: The whole blood to plasma partitioning ratio (B/P) was determined by spiking aliquots of whole blood or plasma maintained at 37°C with compound, incubating for 2 min, and then centrifuging the whole blood sample to obtain the plasma fraction. Both the plasma fraction of whole blood and the plasma control were assayed for compound by LC-MS as described above. The blood to plasma ratio was calculated from the ratio of the concentration in the plasma control (used as a surrogate for the total whole blood concentration since whole blood assays were not available for each compound) to that in the plasma fraction of whole blood. The two-minute time point was used to avoid confounding issues due to potential blood instability; rapid equilibration between plasma and erythrocytes was assumed.

P. falciparum [3] = test: Parasite reduction ratio from published clinical data and kmax calculated from it; assay type: in vivo; conditions: kmax = 1/KZ x ln PRR + 1/48 x ln PMF, PMF = 10
Source text: (§3) The maximal killing rate (kmax) of the drug was assumed to follow a triangular distribution. The middle values were taken from published clinical data. Piperaquine was the only drug with no clinical studies of it administered as a monotherapy and the mode was set to a value equal to that derived from in vitro experiments. The minimum and maximum values of the triangular distribution for each anti-malarial correspond to a 50-fold decrease and 50-fold increase in the number of parasites killed every 48 hours.

[4] = cited from earlier work
P. falciparum [5] = system: P. falciparum; set-up: method as in PMID 2648881; conditions: assumed; cited from earlier work
[6] = system: fresh P. falciparum parasite isolates; test: In vitro drug susceptibility, schizont maturation test (WHO guidelines) on fresh patient isolates; assay type: cell-based; conditions: for IC50: Plasmodium falciparum; for γ, mean on loge scale of log-normal distribution lnN(μ ln, σ ln): first parameter of lnN; for γ (Slope of concentration-effect curve): in vitro
Protocol: as §1

P. falciparum [7] = conditions: every 48 hours; published clinical data; cited from earlier work
P. falciparum [8] = test: Parasite reduction ratio from in vitro killing rate experiments and kmax calculated from it; assay type: cell-based; conditions: kmax = 1/KZ x ln PRR + 1/48 x ln PMF, PMF = 10; PRR from in vitro experiments
Source text: as §3

ring stage parasites = system: ring stage parasites; set-up: method as in PMID 21173254; conditions: patients with delayed PCTs; cited from earlier work
[9] = geometric mean, adjusted to whole blood, lower limit a of EC50 distribution, read-out: IC50 (adjusted) concentration
[10] = geometric mean, not corrected for binding, isolates of 487 patients, Papua, Indonesia, read-out: IC50 measured concentration
[11] = not corrected for binding, from nM and molecular weight, read-out: IC50 concentration

Row | Compound | Binding to media of in vitro experiment (0.5% Albumax) (0.5% Albumax in RPMI) | Human plasma protein binding (human plasma protein) | blood plasma ratio at 2 min [2] | IC50 [6, 9] | IC50 [6, 10] | IC50 [6, 11] | kmax, mode c of triangular distribution TRI(a, b, c) (P. falciparum [3]) | CL/F (clearance) [4] | V/F (volume of distribution) [4] | ka (absorption rate constant) [4] | KZ (length of the killing zone) (P. falciparum [5]) | γ, mean on loge scale of log-normal distribution lnN(μ ln, σ ln) [6] | γ (Slope of concentration-effect curve) [6] | also measured
1 | CO[C@H]1O[C@@H]2O[C@@]3(C)CC[C@H]4[C@H](C)CC[C@@H]([C@H]1C)[C@@]24OO3 [ART, artemether] | 82.8 % bound | 91.7 % bound | 0.8 |  |  |  | TRI(0.12, 0.33, 0.22)^c /h | 180 L/h | 217 L | 0.37 h⁻¹ | 38 h |  |  | IC50 ([1]; adjusted to whole blood, lower limit a of EC50 distribution, read-out: IC50 (adjusted) concentration): 4.38 ng/mL (≈ 0.0147 µM); IC50 ([1]; not corrected for binding, read-out: IC50 concentration): 2.64 ng/mL (≈ 0.00885 µM); γ, mean on loge scale of log-normal distribution lnN(μ ln, σ ln) ([1]; first parameter of lnN): lnN(1.53, 0.31); γ (Slope of concentration-effect curve) ([1]; in vitro): 4.61
2 | C[C@H]1[C@H](OC(=O)CCC(=O)O)O[C@@H]2O[C@@]3(C)CC[C@H]4[C@H](C)CC[C@@H]1[C@@]24OO3 [artesunate] |  |  |  |  |  |  |  |  |  |  |  |  |  | Maximal killing rate for the ring stages, mean (ring stage parasites): 62 % /cycle

More lines, main results first:

Row | Binding to media of in vitro experiment (0.5% Albumax) (0.5% Albumax in RPMI) | Human plasma protein binding (human plasma protein) | blood plasma ratio at 2 min [2] | IC50 [6, 9] | IC50 [6, 10] | IC50 [6, 11] | Compound | kmax, mode c of triangular distribution TRI(a, b, c) (P. falciparum [3]) | CL/F (clearance) [4] | V/F (volume of distribution) [4] | ka (absorption rate constant) [4] | KZ (length of the killing zone) (P. falciparum [5]) | γ, mean on loge scale of log-normal distribution lnN(μ ln, σ ln) [6] | γ (Slope of concentration-effect curve) [6] | also measured
3 | 99.6 % bound | 98.7 % bound | 0.8 | 1.75 ng/mL | 0.0134 µM | 7.1 ng/mL | CCCCN(CCCC)CC(O)c1cc(Cl)cc2c1-c1ccc(Cl)cc1/C2=C/c1ccc(Cl)cc1 (stereo not drawn) [LF, lumefantrine] | TRI(0.18, 0.54, 0.36)^c /h | 7.04 L/h |  | 0.17 h⁻¹ | 22 h | lnN (0.81, 0.58) | 2.24 | Q/F (inter-compartmental clearance) [4]: 4.08 L/h; Vc/F (volume of central compartment) [4]: 103 L; Vp/F (volume of peripheral compartment) [4]: 272 L; PRR (parasite reduction ratio) (P. falciparum [7]): 10^3
4 | 85 % bound | 95.6 % bound |  | 21 ng/mL | 0.00934 µM | 3.53 ng/mL | OC(c1cc(C(F)(F)F)nc2c(C(F)(F)F)cccc12)C1CCCCN1 (stereo not drawn) [MQ, mefloquine] | TRI(0.11, 0.46, 0.28)^c /h |  | 10.2^f L/kg |  | 22 h | lnN (0.97, 0.54) | 2.63 | IC50 (adjusted) concentration ([6]; geometric mean, adjusted to whole blood, lower limit a of EC50 distribution): 20.48 ng/mL (≈ 0.0541 µM)
5 | 98.1 % bound | 98.6 % bound | 0.9 | 11.6 ng/mL | 0.0177 µM | 9.46 ng/mL | Clc1ccc2c(N3CCN(CCCN4CCN(c5ccnc6cc(Cl)ccc56)CC4)CC3)ccnc2c1 [PQ, piperaquine] |  |  |  |  | 24 h |  | 3.48 | kmax, mode c of triangular distribution TRI(a, b, c) (P. falciparum [8]): TRI(0.33, 0.65, 0.49)^c /h; CL/F (clearance) ([4]; 48kg individual): 66 L/h; Q/F (inter-compartmental clearance) ([4]; 48kg individual): 131 L/h; Vc/F (volume of central compartment) ([4]; 48kg individual): 8660 L; Vp/F (volume of peripheral compartment) ([4]; 48kg individual): 24000 L; ka (absorption rate constant) ([4]; 48kg individual): 0.717 h⁻¹
